The values below come from patent US7572786B2, “Substituted 1-piperidin-3-yl-4-piperidin-4-yl-piperazine derivatives and their use as neurokinin antagonists” (Janssen Pharmaceutica, N.V., priority 2002, dated 2009).

What all share (assay type): cell-based
For one assay, the target named is NK1 (Homo sapiens, UniProt P25103). In words: Signal transduction (ST), intracellular Ca++ (FLIPR), NK1 antagonism. The conditions noted are these: for IC50: read-out: pIC50 NK1 (converted). The protocol:
(§1) This test evaluates in vitro functional NK1 antagonistic activity. For the measurements of intracellular Ca^++ concentrations the cells were grown on 96-well (black wall/transparent bottom) plates from Costar for 2 days until they reached confluence. The cells were loaded with 2 μM Fluo3 in DMEM containing 0.1% BSA and 2.5 mM probenecid for 1 h at 37° C. […] The cells were preincubated with a concentration range of antagonists for 20 min at RT and Ca^++-signals after addition of the agonists were measured in a Fluorescence Image Plate Reader (FLIPR from Molecular Devices, Crawley, England). The peak of the Ca^++-transient was considered as the relevant signal and the mean values of corresponding wells were analysed as described below.
(§2) The sigmoidal dose response curves were analysed by computerised curve-fitting, using the GraphPad Program. […] For antagonist responses the IC50-value was calculated using non-linear regression.

A further assay deals with T1, NK2 (Homo sapiens, UniProt P21452).
T1 sequence (P21452 1-398): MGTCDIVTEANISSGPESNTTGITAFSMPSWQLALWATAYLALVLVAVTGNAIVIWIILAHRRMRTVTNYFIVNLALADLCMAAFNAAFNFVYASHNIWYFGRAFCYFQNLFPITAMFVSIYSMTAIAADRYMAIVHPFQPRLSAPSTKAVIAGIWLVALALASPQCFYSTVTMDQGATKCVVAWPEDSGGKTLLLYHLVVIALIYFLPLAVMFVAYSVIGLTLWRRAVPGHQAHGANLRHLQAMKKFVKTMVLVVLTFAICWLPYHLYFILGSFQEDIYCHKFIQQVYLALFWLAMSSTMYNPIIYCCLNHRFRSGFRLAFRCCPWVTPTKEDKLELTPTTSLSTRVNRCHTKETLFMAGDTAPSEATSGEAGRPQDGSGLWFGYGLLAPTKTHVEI
The experiment in a line: Signal transduction (ST), intracellular Ca++ (FLIPR), NK2. The conditions noted are these: for IC50: read-out: pIC50 NK2 (converted). The protocol:
[The source words this procedure for another target and reports this target under the same test.] as §1, §2

For another assay, the target named is T2, NK3 (Homo sapiens, UniProt P29371).
T2 sequence (P29371 1-465): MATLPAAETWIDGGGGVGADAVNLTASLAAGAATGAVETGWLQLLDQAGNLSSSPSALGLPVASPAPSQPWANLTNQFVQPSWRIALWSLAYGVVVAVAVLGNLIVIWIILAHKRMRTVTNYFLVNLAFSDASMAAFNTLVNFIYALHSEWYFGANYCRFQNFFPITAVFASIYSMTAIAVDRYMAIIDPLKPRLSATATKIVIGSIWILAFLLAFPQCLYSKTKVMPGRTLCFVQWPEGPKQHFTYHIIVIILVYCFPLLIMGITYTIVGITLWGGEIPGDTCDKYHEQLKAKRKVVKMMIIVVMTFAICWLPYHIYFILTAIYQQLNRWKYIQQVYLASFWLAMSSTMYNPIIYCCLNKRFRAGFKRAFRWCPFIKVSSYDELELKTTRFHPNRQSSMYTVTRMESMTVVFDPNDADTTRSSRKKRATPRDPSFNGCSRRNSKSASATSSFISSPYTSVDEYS
The experiment in a line: Signal transduction (ST), intracellular Ca++ (FLIPR), NK3. The conditions noted are these: for IC50: read-out: pIC50 NK3 (converted). The procedure: [The source words this procedure for another target and reports this target under the same test.] as §1, §2

Chain of NK1 (P25103 whole entry): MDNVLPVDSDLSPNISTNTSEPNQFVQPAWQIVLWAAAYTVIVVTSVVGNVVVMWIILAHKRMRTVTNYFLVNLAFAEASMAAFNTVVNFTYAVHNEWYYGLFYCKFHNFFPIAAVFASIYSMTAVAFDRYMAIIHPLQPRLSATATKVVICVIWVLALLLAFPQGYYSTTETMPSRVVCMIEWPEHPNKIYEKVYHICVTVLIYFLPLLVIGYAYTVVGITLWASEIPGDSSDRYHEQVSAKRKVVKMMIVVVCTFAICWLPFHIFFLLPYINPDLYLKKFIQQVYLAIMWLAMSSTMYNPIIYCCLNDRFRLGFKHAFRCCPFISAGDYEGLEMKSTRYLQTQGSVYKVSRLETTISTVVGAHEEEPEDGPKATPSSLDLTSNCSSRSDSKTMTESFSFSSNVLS

Consider `O=C(c1cc(C(F)(F)F)cc(C(F)(F)F)c1)N1CC[C@H](N2CCN(C3CCCN(S(=O)(=O)c4ccc(CO)cc4)C3)CC2)C[C@H]1Cc1ccccc1` (stereo partly drawn) [Compound 73], for which the values for the IC50 at NK1, at NK2 and at NK3 were 7.94 nM, 794 nM and 251 nM, respectively.

`O=C(c1cc(C(F)(F)F)cc(C(F)(F)F)c1)N1CC[C@H](N2CCN(C3CCCN(S(=O)(=O)c4ccc(Cl)s4)C3)CC2)C[C@H]1Cc1ccccc1` (stereo partly drawn) [Compound 36]: the “pIC50 NK1” value against NK1 amounted to 7.5. The “pIC50 NK2” value against NK2 amounted to 5.3. Also, the “pIC50 NK3” value against NK3 is listed as 6.2.

On to `O=C(c1cc(C(F)(F)F)cc(C(F)(F)F)c1)N1CC[C@H](N2CCN(C3CCCN(S(=O)(=O)c4ccccc4)C3)CC2)C[C@H]1Cc1ccccc1` (stereo partly drawn) [Compound 28], for which the IC50 at NK1 was 10 nM; on NK2 it was 2000 nM; at NK3, 158 nM.

Take `O=C(c1cccc(O)c1)N1CCCC(N2CCN([C@H]3CCN(C(=O)c4cc(C(F)(F)F)cc(C(F)(F)F)c4)[C@H](Cc4ccccc4)C3)CC2)C1` (stereo partly drawn) [Compound 70]: the IC50 at NK1 was 7.94 nM; on NK2, 3980 nM; at NK3, 1260 nM.

On to `O=C(C1CCCC1)N1CCCC(N2CCN(C3CCN(C(=O)c4cc(C(F)(F)F)cc(C(F)(F)F)c4)C(Cc4ccccc4)C3)CC2)C1` (stereo not drawn) [Compound 41], for which the results for the IC50 on NK1, on NK2 and on NK3 were 7.94 nM, 3160 nM and 100 nM, respectively.

Consider `COc1cccc(S(=O)(=O)N2CCCC(N3CCN([C@H]4CCN(C(=O)c5cc(C(F)(F)F)cc(C(F)(F)F)c5)[C@H](Cc5ccccc5)C4)CC3)C2)c1` (stereo partly drawn) [Compound 69], for which the “pIC50 NK1” value against NK1 was determined as 7.8. On NK2, the “pIC50 NK2” value is recorded as 5.6. In addition, at NK3, the “pIC50 NK3” value worked out at 6.2.

`O=C(c1cc(CCOCc2ccccc2)cs1)N1CCCC(N2CCN([C@H]3CCN(C(=O)c4cc(C(F)(F)F)cc(C(F)(F)F)c4)[C@H](Cc4ccccc4)C3)CC2)C1` (stereo partly drawn) [Compound 99]: the “pIC50 NK1” value at NK1 stood at 6.7. The “pIC50 NK2” value against NK2 turned out to be 5.2. Further, the “pIC50 NK3” value at NK3 is reported as 5.5.

In the case of `O=C(c1cc(C(F)(F)F)cc(C(F)(F)F)c1)N1CC[C@H](N2CCN(C3CCCN(S(=O)(=O)c4ccc(COCc5ccccc5)s4)C3)CC2)C[C@H]1Cc1ccccc1` (stereo partly drawn) [Compound 87], the IC50 was 316 nM on NK1, 794 nM at NK2 and 7940 nM on NK3.

As to `O=C(c1cc(C(F)(F)F)cc(C(F)(F)F)c1)N1CCC(N2CCN(C3CCCN(C(CO)c4cccs4)C3)CC2)CC1Cc1ccccc1` (stereo not drawn) [Compound 77], the IC50 at NK1 is 12.6 nM; at NK2 it was 2000 nM; at NK3 it was 3160 nM.

As to `O=C(c1cc(C(F)(F)F)cc(C(F)(F)F)c1)N1CC[C@H](N2CCN(C3CCCN(S(=O)(=O)c4occc4COCc4ccccc4)C3)CC2)C[C@H]1Cc1ccccc1` (stereo partly drawn) [Compound 90], at NK1, the “pIC50 NK1” value is recorded as 6.8. Further, the “pIC50 NK2” value against NK2 came out at 5.7.

For the compound `O=C(c1ccccc1F)N1CCCC(N2CCN([C@H]3CCN(C(=O)c4cc(C(F)(F)F)cc(C(F)(F)F)c4)[C@H](Cc4ccccc4)C3)CC2)C1` (stereo partly drawn) [Compound 9], the values for the IC50 at NK1, on NK2 and on NK3 were 15.8 nM, 2510 nM and 794 nM, respectively.

Regarding `O=C(C1CC1)N1CCCC(N2CCN([C@H]3CCN(C(=O)c4cc(C(F)(F)F)cc(C(F)(F)F)c4)[C@H](Cc4ccccc4)C3)CC2)C1` (stereo partly drawn) [Compound 15], the IC50 at NK1 is 12.6 nM; at NK2, 6310 nM; at NK3 it was 158 nM.

For `O=C(c1ccc(CCO)s1)N1CCCC(N2CCN(C3CCN(C(=O)c4cc(C(F)(F)F)cc(C(F)(F)F)c4)C(Cc4ccccc4)C3)CC2)C1` (stereo not drawn) [Compound 98], the IC50 on NK1 is 12.6 nM; on NK2, 5010 nM; on NK3, 2000 nM.

Regarding `O=C(c1cc(C(F)(F)F)cc(C(F)(F)F)c1)N1CC[C@H](N2CCN(C3CCCN(C(CO)c4ccsc4)C3)CC2)C[C@H]1Cc1ccccc1` (stereo partly drawn) [Compound 76], the IC50 at NK1 was 20 nM; on NK2, 2000 nM; on NK3, 1580 nM.

As for `O=C(c1cc(C(F)(F)F)cc(C(F)(F)F)c1)N1CC[C@H](N2CCN(C3CCCN(S(=O)(=O)c4csc(COCc5ccccc5)c4)C3)CC2)C[C@H]1Cc1ccccc1` (stereo partly drawn) [Compound 104], the IC50 on NK1 is 126 nM; on NK2, 1260 nM; at NK3, 316 nM.

Turning to `Cn1cnc(C(=O)N2CCCC(N3CCN([C@H]4CCN(C(=O)c5cc(C(F)(F)F)cc(C(F)(F)F)c5)[C@H](Cc5ccccc5)C4)CC3)C2)c1` (stereo partly drawn) [Compound 63], the IC50 is 5.01 nM on NK1, 3160 nM on NK2 and 6310 nM at NK3.

Take `O=C(c1cc(C(F)(F)F)cc(C(F)(F)F)c1)N1CC[C@H](N2CCN(C3CCCN(S(=O)(=O)c4ccc(CCOCc5ccccc5)s4)C3)CC2)C[C@H]1Cc1ccccc1` (stereo partly drawn) [Compound 84]: the IC50 on NK1 was 251 nM; on NK2, 501 nM; on NK3, 1260 nM.

Take `CC(C)N/C(=C\[N+](=O)[O-])N1CCCC(N2CCN(C3CCN(C(=O)c4cc(C(F)(F)F)cc(C(F)(F)F)c4)C(Cc4ccccc4)C3)CC2)C1` (stereo not drawn) [Compound 103]: the IC50 at NK1 was 10 nM; on NK2 it was 6310 nM.

`CC(C)N/C(=N\C#N)N1CCCC(N2CCN(C3CCN(C(=O)c4cc(C(F)(F)F)cc(C(F)(F)F)c4)C(Cc4ccccc4)C3)CC2)C1` (stereo not drawn) [Compound 91]: the IC50 at NK1 was 10 nM; on NK2 it was 1000 nM; on NK3, 3980 nM.

`O=C(c1c(Cl)cccc1Cl)N1CCCC(N2CCN([C@H]3CCN(C(=O)c4cc(C(F)(F)F)cc(C(F)(F)F)c4)[C@H](Cc4ccccc4)C3)CC2)C1` (stereo partly drawn) [Compound 64]: the IC50 on NK1 is 12.6 nM; at NK2 it was 6310 nM; at NK3 it was 794 nM.

Regarding `O=C(c1ccc(O)cc1)N1CCCC(N2CCN(C3CCN(C(=O)c4cc(C(F)(F)F)cc(C(F)(F)F)c4)C(Cc4ccccc4)C3)CC2)C1` (stereo not drawn) [Compound 67], the IC50 is 6.31 nM at NK1, 5010 nM at NK2 and 1580 nM on NK3.

With `O=C(c1cccs1)N1CCCC(N2CCN([C@H]3CCN(C(=O)c4cc(C(F)(F)F)cc(C(F)(F)F)c4)[C@H](Cc4ccccc4)C3)CC2)C1` (stereo partly drawn) [Compound 20], the figures for the IC50 on NK1, on NK2 and at NK3 were 31.6 nM, 2000 nM and 251 nM, respectively.

Take `N#Cc1cccc(C(=O)N2CCCC(N3CCN([C@H]4CCN(C(=O)c5cc(C(F)(F)F)cc(C(F)(F)F)c5)[C@H](Cc5ccccc5)C4)CC3)C2)c1` (stereo partly drawn) [Compound 57]: the IC50 at NK1 is 12.6 nM; on NK2 it was 3160 nM; on NK3, 794 nM.

`O=C(c1sccc1CO)N1CCCC(N2CCN([C@H]3CCN(C(=O)c4cc(C(F)(F)F)cc(C(F)(F)F)c4)[C@H](Cc4ccccc4)C3)CC2)C1` (stereo partly drawn) [Compound 97]: the IC50 at NK1 was 10 nM; on NK2, 3980 nM; at NK3 it was 2510 nM.

For `O=C(Cc1cccs1)N1CCCC(N2CCN([C@H]3CCN(C(=O)c4cc(C(F)(F)F)cc(C(F)(F)F)c4)[C@H](Cc4ccccc4)C3)CC2)C1` (stereo partly drawn) [Compound 43], the IC50 on NK1 is 10 nM; on NK2 it was 2000 nM; on NK3 it was 501 nM.

Consider `O=C(c1cc(C(F)(F)F)cc(C(F)(F)F)c1)N1CC[C@H](N2CCN(C3CCCN(S(=O)(=O)c4ccc(COCc5ccccc5)cc4)C3)CC2)C[C@H]1Cc1ccccc1` (stereo partly drawn) [Compound 58], for which the figures for the IC50 at NK1 and at NK2 were 251 nM and 2000 nM, respectively.

Consider `O=C(c1cc(F)ccc1F)N1CCCC(N2CCN([C@H]3CCN(C(=O)c4cc(C(F)(F)F)cc(C(F)(F)F)c4)[C@H](Cc4ccccc4)C3)CC2)C1` (stereo partly drawn) [Compound 12], for which the IC50 was 25.1 nM at NK1 and 3160 nM on NK3.

Consider `O=C(c1cc(C(F)(F)F)cc(C(F)(F)F)c1)N1CC[C@H](N2CCN(C3CCCN(C(=O)n4ccnc4)C3)CC2)C[C@H]1Cc1ccccc1` (stereo partly drawn) [Compound 21], for which the IC50 at NK1 is 20 nM; on NK3 it was 1260 nM.

In the case of `O=C(c1cc(C(F)(F)F)cc(C(F)(F)F)c1)N1CC[C@H](N2CCCN(C3CCCN(Cc4ccccc4)C3)CC2)C[C@H]1Cc1ccccc1` (stereo partly drawn) [Compound 111], the IC50 was 251 nM at NK1 and 7940 nM on NK3.
